Earlier results as cited in US8071133B2, “Oral dosage forms of water insoluble drugs and methods of making the same” (Stiefel Laboratories, Inc., priority 2001, dated 2011).

- solubility in water: approximately 10 microgram per mL
Compound: CC(C)(C)NC(=O)[C@@H]1C[C@@H]2CCCC[C@@H]2CN1C[C@@H](O)[C@H](Cc1ccccc1)NC(=O)[C@H](CC(N)=O)NC(=O)c1ccc2ccccc2n1 [Saquinavir]
